Experimental findings from patent US7109193B2, “Tricyclic diazepines tocolytic oxytocin receptor antagonists” (Wyeth, priority 2001, dated 2006) are described below.

For this experiment, the target named is T1, human vasopressin V2 receptor subtype (Homo sapiens, UniProt P30518).
T1 construct: host or cells: CHO cells (pZeoSV vector)
In words: Vasopressin binding in Chinese Hamster Ovary cell membranes expressing human vasopressin V2 subtype receptors. The settings on record: 100 nM, CHO cell membranes, [3H]arginine vasopressin, values without parentheses. The method, boiled down: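 Radioligand displacement on membranes from CHO cells stably expressing human V2 receptor, 25 to 50 μg protein/well, in 50 mM Tris-HCl pH 7.4 with MgCl2, BSA and protease inhibitors. [^3H]arginine vasopressin (8 nM working solution) incubated 60 min at room temperature; bound label measured by filtration and scintillation counting.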

Structures are written as SMILES.

T1 sequence (P30518 whole entry): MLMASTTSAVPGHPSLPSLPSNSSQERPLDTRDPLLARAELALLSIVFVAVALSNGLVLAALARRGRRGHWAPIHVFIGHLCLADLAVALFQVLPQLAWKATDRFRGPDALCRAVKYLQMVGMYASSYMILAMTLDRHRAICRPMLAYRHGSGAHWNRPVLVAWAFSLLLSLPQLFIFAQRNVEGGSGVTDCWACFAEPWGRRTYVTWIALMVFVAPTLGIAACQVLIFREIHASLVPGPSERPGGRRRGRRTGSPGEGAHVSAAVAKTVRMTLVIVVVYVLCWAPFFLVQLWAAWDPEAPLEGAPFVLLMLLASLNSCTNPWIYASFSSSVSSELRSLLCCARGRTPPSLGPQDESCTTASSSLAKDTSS

Take `C=CCN1CCN(C(=O)c2ccc3n2Cc2ccccc2N(C(=O)c2ccc(-n4c(C)ccc4C)c(OC)c2)C3)CC1` [Example 318, (4-Allyl-1-piperazinyl){10-[4-(2,5-dimethyl-1H-pyrrol-1-yl)-3-methoxybenzoyl]-10,11-dihydro-5H-pyrrolo[2,1-c][1,4]benzodiazepin-3-yl}methanone]: the inhibition at 0.1 µM was 17%.

For the molecule `COc1cccc(-c2cc(OC)c(C(=O)N3Cc4ccc(C(=O)N5CCCN(C)CC5)n4Cc4ccccc43)cc2Cl)c1` [Example 67, {10-[(6-Chloro-3,3′-dimethoxy[1,1′-biphenyl]-4-yl)carbonyl]-10,11-dihydro-5H-pyrrolo[2,1-c][1,4]benzodiazepin-3-yl}(4-methyl-1,4-diazepan-1-yl)methanone], the inhibition at 0.1 µM was 4%.

For the molecule `COc1cccc(-c2ccc(C(=O)N3Cc4ccc(C(=O)N5CCN(CCCN(C)C)CC5)n4Cc4ccccc43)cc2OC)c1` [Example 255, {10-[(2,3′-Dimethoxy[1,1′-biphenyl]-4-yl)carbonyl]-10,11-dihydro-5H-pyrrolo[2,1-c][1,4]benzodiazepin-3-yl}{4-[3-(dimethylamino)propyl]-1-piperazinyl}methanone], the inhibition at 0.1 µM is 27%.

Take `COc1cc(C(=O)N2Cc3ccc(C(=O)N4CCC(N5CCCCC5)CC4)n3Cc3ccccc32)ccc1-n1c(C)ccc1C` [Example 311, {10-[4-(2,5-Dimethyl-1H-pyrrol-1-yl)-3-methoxy-benzoyl]-10,11-dihydro-5H-pyrrolo[2,1-c][1,4]benzodiazepin-3-yl}[4-(1-piperidinyl)-1-piperidinyl]-methanone]: the inhibition at 0.1 µM came out at 7%.

For `COc1cc(C(=O)N2Cc3ccc(C(=O)NCCCn4ccnc4)n3Cc3ccccc32)ccc1-n1c(C)ccc1C` [Example 312, 10-[4-(2,5-Dimethyl-1H-pyrrol-1-yl)-3-methoxybenzoyl]-N-[3-(1H-imidazol-1-yl)propyl]-10,11-dihydro-5H-pyrrolo[2,1-c][1,4]benzodiazepine-3-carboxamide], the inhibition at 0.1 µM was found to be 3%.

For `COc1cc(C(=O)N2Cc3ccc(C(=O)NCCCN(C)C)n3Cc3ccccc32)ccc1-n1c(C)ccc1C` [Example 308, N-[3-(Dimethylamino)propyl]-10-[4-(2,5-dimethyl-1H-pyrrol-1-yl)-3-methoxybenzoyl]-10,11-dihydro-5H-pyrrolo[2,1-c][1,4]benzodiazepine-3-carboxamide], the inhibition at 0.1 µM turned out to be 1%.

With `COc1cc(C(=O)N2Cc3ccc(C(=O)N4CCCN(C)CC4)n3Cc3ccccc32)ccc1-n1c(C)ccc1C` [Example 307, {10-[4-(2,5-Dimethyl-1H-pyrrol-1-yl)-3-methoxybenzoyl]-10,11-dihydro-5H-pyrrolo[2,1-c][1,4]benzodiazepin-3-yl}(4-methyl-1,4-diazepan-1-yl)methanone], the inhibition at 0.1 µM is 8%.

Take `CN1CCN(C(=O)c2ccc3n2Cc2ccccc2N(C(=O)c2ccc(-c4cccc5ccccc45)cc2Cl)C3)CC1` [Example 58, {10-[2-Chloro-4-(1-naphthyl)benzoyl]-10,11-dihydro-5H-pyrrolo[2,1-c][1,4]benzodiazepin-3-yl}(4-methyl-1-piperazinyl)methanone]: the inhibition at 0.1 µM amounted to 18%.

Consider `CN(C)CCCN1CCN(C(=O)c2ccc3n2Cc2ccccc2N(C(=O)c2ccc(-c4cccc5ccccc45)cc2Cl)C3)CC1` [Example 256, {10-[2-Chloro-4-(1-naphthyl)benzoyl]-10,11-dihydro-5H-pyrrolo[2,1-c][1,4]benzodiazepin-3-yl}{4-[3-(dimethylamino)propyl]-1-piperazinyl}methanone], for which the inhibition at 0.1 µM was 40%.

`CN1CCCN(C(=O)c2ccc3n2Cc2ccccc2N(C(=O)c2ccc(-c4cccc5ccccc45)cc2Cl)C3)CC1` [Example 71, {10-[2-Chloro-4-(1-naphthyl)benzoyl]-10,11-dihydro-5H-pyrrolo[2,1-c][1,4]benzodiazepin-3-yl}(4-methyl-1,4-diazepan-1-yl)methanone]: the inhibition at 0.1 µM is 13%.

Turning to `COc1ccccc1-c1ccc(C(=O)N2Cc3ccc(C(=O)N[C@@H](Cc4c[nH]cn4)C(N)=O)n3Cc3ccccc32)cc1` [Example 285, N-[(1S)-2-Amino-1-(1H-imidazol-4-ylmethyl)-2-oxoethyl]-10-[(2′-methoxy[1,1′-biphenyl]-4-yl)carbonyl]-10,11-dihydro-5H-pyrrolo[2,1-c][1,4]benzodiazepine-3-carboxamide], the inhibition at 0.1 µM was found to be 32%.

Consider `COc1ccccc1-c1ccc(C(=O)N2Cc3ccc(C(=O)N4CCN(CCCN(C)C)CC4)n3Cc3ccccc32)cc1OC` [Example 254, {10-[(2,2′-Dimethoxy[1,1′-biphenyl]-4-yl)carbonyl]-10,11-dihydro-5H-pyrrolo[2,1-c][1,4]benzodiazepin-3-yl}{4-[3-(dimethylamino)propyl]-1-piperazinyl}methanone], for which the inhibition at 0.1 µM is -4%.

As to `COc1cc(C(=O)N2Cc3ccc(C(=O)N4CCN(CCN(C)C)CC4)n3Cc3ccccc32)ccc1-n1c(C)ccc1C` [Example 316, {4-[2-(Dimethylamino)ethyl]-1-piperazinyl}{10-[4-(2,5-dimethyl-1H-pyrrol-1-yl)-3-methoxybenzoyl]-10,11-dihydro-5H-pyrrolo[2,1-c][1,4]benzodiazepin-3-yl}methanone], the inhibition at 0.1 µM is -2%.

Regarding `CC(C)N1CCN(C(=O)c2ccc3n2Cc2ccccc2N(C(=O)c2ccc(-c4cccc5ccccc45)cc2Cl)C3)CC1` [Example 243, {10-[2-Chloro-4-(1-naphthyl)benzoyl]-10,11-dihydro-5H-pyrrolo[2,1-c][1,4]benzodiazepin-3-yl}(4-isopropyl-1-piperazinyl)methanone], the inhibition at 0.1 µM stood at 21%.

Consider `COc1cccc(-c2cc(OC)c(C(=O)N3Cc4ccc(C(=O)N5CCN(C)CC5)n4Cc4ccccc43)cc2Cl)c1` [Example 54, {10-[(6-Chloro-3,3′-dimethoxy[1,1′-biphenyl]-4-yl)carbonyl]-10,11-dihydro-5H-pyrrolo[2,1-c][1,4]benzodiazepin-3-yl}(4-methyl-1-piperazinyl)methanone], for which the inhibition at 0.1 µM was 7%.

`COc1ccccc1-c1ccc(C(=O)N2Cc3ccc(C(=O)N4CCCN(C)CC4)n3Cc3ccccc32)cc1OC` [Example 69, {10-[(2,2′-Dimethoxy[1,1′-biphenyl]-4-yl)carbonyl]-10,11-dihydro-5H-pyrrolo[2,1-c][1,4]benzodiazepin-3-yl}(4-methyl-1,4-diazepan-1-yl)methanone]: the inhibition at 0.1 µM was 22%.

On to `Cc1ccccc1-c1ccc(C(=O)N2Cc3ccc(C(=O)NCCCN(C)C)n3Cc3ccccc32)cc1C` [Example 73, N-[3-(Dimethylamino)propyl]-10-[(2,2′-dimethyl[1,1′-biphenyl]-4-yl)carbonyl]-10,11-dihydro-5H-pyrrolo[2,1-c][1,4]benzodiazepine-3-carboxamide], for which the inhibition at 0.1 µM stood at 21%.

As for `COc1cc(C(=O)N2Cc3cccn3Cc3ccccc32)ccc1-c1ccccc1C(F)(F)F` [Example 19D, (10,11-Dihydro-5H-pyrrolo[2,1-c][1,4]benzodiazepin-10-yl)-(2-methoxy-2′-trifluoromethyl-[1,1′-biphenyl]-4-yl)-methanone], the inhibition at 0.1 µM was 84%.

In the case of `COc1cc(C(=O)N2Cc3ccc(C(=O)N4CCN(CCCN(C)C)CC4)n3Cc3ccccc32)ccc1-c1ccccc1C` [Example 250, {4-[3-(Dimethylamino)propyl]-1-piperazinyl}{10-[(2-methoxy-2′-methyl[1,1′-biphenyl]-4-yl)carbonyl]-10,11-dihydro-5H-pyrrolo[2,1-c][1,4]benzodiazepin-3-yl}methanone], the inhibition at 0.1 µM is -10%.

As for `COc1ccccc1-c1ccc(C(=O)N2Cc3ccc(C(=O)N4CCN(C)CC4)n3Cc3ccccc32)cc1C` [Example 49, {10-[(2′-Methoxy-2-methyl[1,1′-biphenyl]-4-yl)carbonyl]-10,11-dihydro-5H-pyrrolo[2,1-c][1,4]benzodiazepin-3-yl}(4-methyl-1-piperazinyl)methanone], the inhibition at 0.1 µM came out at 27%.

For `Cc1cc(C(=O)N2Cc3ccc(C(=O)N[C@@H](Cc4c[nH]cn4)C(N)=O)n3Cc3ccccc32)ccc1-c1ccccc1C(F)(F)F` [Example 284, N-[(1S)-2-Amino-1-(1H-imidazol-4-ylmethyl)-2-oxoethyl]-10-{[2-methyl-2′-(trifluoromethyl)[1,1′-biphenyl]-4-yl]carbonyl}-10,11-dihydro-5H-pyrrolo[2,1-c][1,4]benzodiazepine-3-carboxamide], the inhibition at 0.1 µM was determined as 12%.

As for `Cc1ccccc1-c1ccc(C(=O)N2Cc3ccc(C(=O)N4CCN(C)CC4)n3Cc3ccccc32)cc1` [Example 52, {10-[(2′-Methyl[1,1′-biphenyl]-4-yl)carbonyl]-10,11-dihydro-5H-pyrrolo[2,1-c][1,4]benzodiazepin-3-yl}(4-methyl-1-piperazinyl)methanone], the inhibition at 0.1 µM came to 17%.

Consider `COc1ccccc1-c1ccc(C(=O)N2Cc3ccc(C(=O)N[C@H]4CN5CCC4CC5)n3Cc3ccccc32)cc1OC` [Example 299, N-[(3R)-1-Azabicyclo[2.2.2]oct-3-yl]-10-[(2,2′-dimethoxy[1,1′-biphenyl]-4-yl)carbonyl]-10,11-dihydro-5H-pyrrolo[2,1-c][1,4]benzodiazepine-3-carboxamide], for which the inhibition at 0.1 µM was 22%.

As to `COc1ccccc1-c1ccc(C(=O)N2Cc3ccc(C(=O)NCCCN(C)C)n3Cc3ccccc32)cc1` [Example 75, N-[3-(Dimethylamino)propyl]-10-[(2′-methoxy[1,1′-biphenyl]-4-yl)carbonyl]-10,11-dihydro-5H-pyrrolo[2,1-c][1,4]benzodiazepine-3-carboxamide], the inhibition at 0.1 µM is 14%.

`COc1cc(C(=O)N2Cc3ccc(C(=O)N4CCCN(C)CC4)n3Cc3ccccc32)ccc1-c1cccc2ccccc12` [Example 68, {10-[3-Methoxy-4-(1-naphthyl)benzoyl]-10,11-dihydro-5H-pyrrolo[2,1-c][1,4]benzodiazepin-3-yl}(4-methyl-1,4-diazepan-1-yl)methanone]: the inhibition at 0.1 µM is 29%.

The term inhibition denotes the drop in the measured response relative to a control, in per cent.
